Starred links: 1 amine or outer side, 2 acyl side, 3 side chain; linkers in the order of their positions; H or OH if unused. Positions of bridges follow the written chain, without caps; N, C: chain ends. Non-standard residues stand in square brackets, D forms with d. Residues, ends and D or L forms follow the SMILES beside them. *: point of attachment. hPhe(3,5-F2-4-CF3) = N[C@@H](CCc1cc(F)c(C(F)(F)F)c(F)c1)C(=O)O; hPhe(3-Cl-4-CF3) = N[C@@H](CCc1ccc(C(F)(F)F)c(Cl)c1)C(=O)O; NMePhe(4-CF3) = CN[C@@H](Cc1ccc(C(F)(F)F)cc1)C(=O)O; hPhe(4-CF3) = N[C@@H](CCc1ccc(C(F)(F)F)cc1)C(=O)O; NMePhe(3-Cl) = CN[C@@H](Cc1cccc(Cl)c1)C(=O)O; NMePhe(4-Cl) = CN[C@@H](Cc1ccc(Cl)cc1)C(=O)O; NMePhe(4-Me) = CN[C@@H](Cc1ccc(C)cc1)C(=O)O; NMedβ3hAla = C[C@H](CC(=O)[*:2])N(C)[*:1]; NMeGly(cPent) = CN[C@H](C(=O)O)C1CCCC1; Pro(4,4-F2) = O=C(O)[C@@H]1CC(F)(F)CN1; NMeCha = CN[C@@H](CC1CCCCC1)C(=O)O; NMeGly(cPr) = CN[C@H](C(=O)O)C1CC1; NMehLeu = CN[C@@H](CCC(C)C)C(=O)O; NMeChg = CN[C@H](C(=O)O)C1CCCCC1; NMeI = CC[C@H](C)[C@H](NC)C(=O)O; NMeD = CN[C@@H](CC(=O)O)C(=O)O; NMeL = CN[C@@H](CC(C)C)C(=O)O; dNMeAbu = CC[C@@H](NC)C(=O)O; NMeV = CN[C@H](C(=O)O)C(C)C; d(β3hA) = C[C@@H](N)CC(=O)O; NMeS = CN[C@@H](CO)C(=O)O; NMeA = CN[C@@H](C)C(=O)O; Piperidide = C1CCN(*)CC1; Pyrrolidide = C1CCN(*)C1; Ac5c = NC1(C(=O)O)CCCC1; Aze = O=C(O)[C@@H]1CCN1; Ac4c = NC1(C(=O)O)CCC1; CH2CMe2OH = CC(C)(O)C*; Sar = CNCC(=O)O
Target: T1, Kras and SOS1 (biotin-tagged human Kras loaded with GDP, His-tagged human SOS1) (Homo sapiens, UniProt P01116, G12D)
T1 construct: made in house; host or cells: E. coli (stated for Kras only)
T1 sequence (P01116 1-188 isoform P01116-2 G12D): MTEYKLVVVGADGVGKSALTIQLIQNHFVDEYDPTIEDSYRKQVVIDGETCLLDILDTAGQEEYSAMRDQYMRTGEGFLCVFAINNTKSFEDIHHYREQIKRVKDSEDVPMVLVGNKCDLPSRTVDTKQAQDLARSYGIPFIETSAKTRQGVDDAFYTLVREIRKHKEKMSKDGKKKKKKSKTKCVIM
Experiment: Protein-protein interaction inhibition between Kras and SOS1 (KrasGl2D-SOS PPI) using AlphaScreen
Format: binding
Conditions: AlphaScreen; biotin-tagged human Kras loaded with GDP, His-tagged human SOS1; read-out: KRAS G12D-SOS PPI IC50
Procedure, shortened: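 Energy transfer from nickel-chelate donor beads bound to His-SOS1 to streptavidin acceptor beads bound to biotin-Kras, expressed in E. coli and loaded with GDP after purification, was monitored. Donors were excited at 680 nm; singlet oxygen reaching acceptors gave emission read at 520-620 nm.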

First: CC[C@H](C)[C@@H]1NC(=O)[C@H](CC(C)C)N(C)C(=O)C[C@@H](C)N(C)C(=O)[C@H](C2CCCCC2)N(C)C(=O)C2(CCC2)NC(=O)[C@@H]2CC(F)(F)CN2C(=O)[C@H](CCc2cc(F)c(C(F)(F)F)c(F)c2)NC(=O)CN(C)C(=O)[C@H](Cc2ccc(C(F)(F)F)cc2)N(C)C(=O)CN(C)C(=O)CN(C)C1=O [Compound 579] (cyclo([Ac4c][NMeChg][NMedβ3hAla][NMeL]I[Sar][Sar][NMePhe(4-CF3)][Sar][hPhe(3,5-F2-4-CF3)][Pro(4,4-F2)]))
Second: CC[C@H](C)[C@@H]1NC(=O)[C@H](CC(C)C)N(C)C(=O)C[C@@H](C(=O)N2CCCCC2)N(C)C(=O)[C@H]([C@@H](C)CC)N(C)C(=O)C2(CCCC2)NC(=O)[C@@H]2CCCN2C(=O)[C@H](CCc2ccc(C(F)(F)F)c(Cl)c2)NC(=O)CN(C)C(=O)[C@H](Cc2ccc(C)cc2)N(C)C(=O)CN(C)C(=O)CN(C)C1=O [Compound 1649] ([NMeL]I[Sar][Sar][NMePhe(4-Me)][Sar][hPhe(3-Cl-4-CF3)]P[Ac5c][NMeI][NMeD]-Piperidide; lactam N-11)
The IC50 of the first is 40-fold higher: 17 nM for the first, 0.42 nM for the second. The second is the more potent here.

Going from `CC[C@H](C)[C@@H]1NC(=O)[C@H](C2CC2)N(C)C(=O)C[C@@H](C)NC(=O)[C@H](C(C)C)N(C)C(=O)C2(CCCC2)NC(=O)[C@@H]2CCCN2C(=O)[C@H](CCc2ccc(C(F)(F)F)c(Cl)c2)NC(=O)CN(C)C(=O)[C@H](CC2CCCCC2)N(C)C(=O)CN(C)C(=O)CN(C)C1=O` [Compound 844] (cyclo([Ac5c][NMeV][d(β3hA)][NMeGly(cPr)]I[Sar][Sar][NMeCha][Sar][hPhe(3-Cl-4-CF3)]P)) to `CC[C@H](C)[C@@H]1NC(=O)[C@H](C2CC2)N(C)C(=O)C[C@@H](C)NC(=O)[C@H](C(C)C)N(C)C(=O)C2(CCCC2)NC(=O)[C@@H]2CCCN2C(=O)[C@H](CCc2ccc(C(F)(F)F)c(Cl)c2)NC(=O)CN(C)C(=O)[C@H](CC2CCCCC2)N(C)C(=O)[C@@H]2CCN2C(=O)[C@H](C)N(C)C1=O` [Compound 565] (cyclo([Ac5c][NMeV][d(β3hA)][NMeGly(cPr)]I[NMeA][Aze][NMeCha][Sar][hPhe(3-Cl-4-CF3)]P)), the IC50 rises from 28 nM to 55 nM (2-fold). The first is the more potent here.

Going from `CC[C@@H]1C(=O)NC2(CCCC2)C(=O)N(C)[C@@H](C2CCCC2)C(=O)N(C)[C@H](C(=O)N2CCCCC2)CC(=O)N(C)[C@@H](CC(C)C)C(=O)N[C@@H]([C@@H](C)CC)C(=O)N(C)[C@@H](C)C(=O)N2CC[C@H]2C(=O)N(C)[C@@H](CC2CCCCC2)C(=O)N(C)CC(=O)N[C@@H](CCc2ccc(C(F)(F)F)c(Cl)c2)C(=O)N1C` [Compound 1441] ([NMeL]I[NMeA][Aze][NMeCha][Sar][hPhe(3-Cl-4-CF3)][dNMeAbu][Ac5c][NMeGly(cPent)][NMeD]-Piperidide; lactam N-11) to `CC[C@H](C)[C@@H]1NC(=O)[C@H](CC(C)C)N(C)C(=O)C[C@@H](C(=O)N2CCCCC2)N(C)C(=O)[C@H](C(C)C)N(C)C(=O)C2(CCCC2)NC(=O)[C@H](C)NC(=O)[C@H](CCc2ccc(C(F)(F)F)c(Cl)c2)NC(=O)CN(C)C(=O)[C@H](CC2CCCCC2)N(C)C(=O)[C@@H]2CCN2C(=O)[C@H](C)N(C)C1=O` [Compound 1316] ([NMeL]I[NMeA][Aze][NMeCha][Sar][hPhe(3-Cl-4-CF3)]A[Ac5c][NMeV][NMeD]-Piperidide; lactam N-11), the IC50 falls from 6.4 nM to 3.2 nM (2-fold).

First: CC[C@H](C)[C@@H]1NC(=O)[C@H](C)N(C)C(=O)C[C@@H](C)NC(=O)[C@H](C2CCCC2)N(C)C(=O)C2(CCCC2)NC(=O)[C@@H]2CCCN2C(=O)[C@H](CCc2ccc(C(F)(F)F)c(Cl)c2)NC(=O)CN(C)C(=O)[C@H](Cc2cccc(Cl)c2)N(C)C(=O)[C@@H]2CCCN2C(=O)CN(C)C1=O [Compound 186] (cyclo([Ac5c][NMeGly(cPent)][d(β3hA)][NMeA]I[Sar]P[NMePhe(3-Cl)][Sar][hPhe(3-Cl-4-CF3)]P))
Second: CC[C@H](C)[C@@H]1NC(=O)[C@H](C)N(C)C(=O)C[C@@H](C(=O)N2CCCCC2)N(C)C(=O)[C@H](C(C)C)N(C)C(=O)C2(CCCC2)NC(=O)[C@@H]2CCCN2C(=O)[C@H](CCc2ccc(C(F)(F)F)c(Cl)c2)NC(=O)CN(C)C(=O)[C@H](CC2CCCCC2)N(C)C(=O)[C@@H]2CCN2C(=O)[C@H](CCC(C)C)N(C)C1=O [Compound 1595] ([NMeA]I[NMehLeu][Aze][NMeCha][Sar][hPhe(3-Cl-4-CF3)]P[Ac5c][NMeV][NMeD]-Piperidide; lactam N-11)
The IC50 of the first is 3.2-fold higher: 48 nM for the first, 15 nM for the second.

For `CC[C@H](C)[C@@H]1NC(=O)[C@H](C)N(C)C(=O)C[C@@H](C(=O)N2CCCC2)NC(=O)[C@H](CC(C)C)N(C)C(=O)[C@H](COCC(C)(C)O)N(C)C(=O)[C@H](CC(C)C)NC(=O)[C@H](CCc2ccc(C(F)(F)F)cc2)NC(=O)CN(C)C(=O)[C@H](Cc2ccc(Cl)cc2)N(C)C(=O)CN(C)C(=O)CN(C)C1=O` [Compound 582] ([NMeA]I[Sar][Sar][NMePhe(4-Cl)][Sar][hPhe(4-CF3)]L[NMeS](CH2CMe2OH)[NMeL]D-Pyrrolidide; lactam N-11), the IC50 was 24 nM.
